In PubChem BioAssay AID179 (DTP/NCI, 2004) one finds EC50, IC50 and outcome data, which are given here for 68 molecules.

Calls of active or inactive are those of the source.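 How the source made its calls: active means compounds giving half or more protection of infected cells from virus-caused growth loss, again on retest; inactive means the rest.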 Where a SMILES comes first, the peptide text is derived from it.

This assay relates to CEM cells HIV-1 protection, formazan growth assay. The experiment in a line: NCI AIDS Antiviral Assay. The following applies: for IC50: measured here: growth of uninfected CEM cells. The gist of the method:
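Protection of CEM cells against HIV-1 was scored from cell growth (soluble formazan) across five concentrations, with parallel uninfected cells. Lack of protection may reflect toxicity.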

Regarding `CCN(CC)CCCNc1ccc([N+](=O)[O-])c2nc3ccccc3c(N)c12`, the EC50 was > 200 µM and the IC50 worked out at 0.214 µM.

For the molecule `O=C1N[C@@H]2C(=C[C@H](O)[C@@H](O)[C@H]2O)c2cc3c(c(O)c21)OCO3`, the result was inactive.

Regarding `CCOc1ccccc1N=Nc1ccc2oc(=O)c(C(C)=O)cc2c1`, the EC50 is > 8.13 µM and the IC50 is > 8.13 µM.

Consider `COc1ccc(S(=O)(=O)N(C)CC(=O)O)cc1`, for which the outcome was inactive.

For the molecule `CC(=O)N1CCc2cc(S(C)(=O)=O)c3c(c21)CCC3`, the result was inactive.

Regarding `CN(C)CCN1C(=O)c2cccc3cc([N+](=O)[O-])cc(c23)C1=O`, the EC50 is > 200 µM and the IC50 amounted to 0.0912 µM.

On to `Cc1ccc(NC(=O)Nc2sc(=S)c3c(c2C#N)CCCC3)c(C)c1`, for which the EC50 was > 58.9 µM and the IC50 is > 58.9 µM.

`CC(=O)Nc1cc(Cl)cc(Cl)c1O`: the EC50 is > 200 µM and the IC50 worked out at 53.7 µM.

With `Cc1ccc(-c2c(C#N)c(-c3ccc([N+](=O)[O-])cc3)c(C#N)c(=O)n2NS(=O)(=O)c2ccc(C)cc2)cc1`, the EC50 is > 200 µM and the IC50 was 12 µM.

As to `COC(=O)c1ccccc1SSc1ccccc1C(=O)OC`, the EC50 is > 200 µM and the 50% inhibitory concentration (IC50) worked out at 18.6 µM.

Consider `CC(=O)c1cc2c3c(c1)c1cc4c(cc1c(=O)n3CC2)OCO4`, for which the outcome was inactive.

In the case of `COc1cc2cc[n+](C)c(Cc3ccc(Oc4cc(Cc5c6cc(OC)c(OC)cc6cc[n+]5C)ccc4OC)cc3)c2cc1OC`, the outcome was inactive.

With `Cc1ccc(NC(=O)C(=O)C2C(=O)NC(=O)NC2=O)c(C)c1`, the EC50 was > 832 µM and the IC50 was > 832 µM.

Take `COC(=O)c1ccccc1C1CN=NC12Cc1cc3c(cc1C2=O)CCC3` (configuration not stated): the result was inactive.

For `CCOP(=O)(Nc1ccccc1P(=O)(OCC)OCC)OCC`, the EC50 is > 200 µM and the IC50 is > 200 µM.

In the case of `COCN1C(=O)[C@@H]2CCCN2C(=O)c2ccc([N+](=O)[O-])cc21`, the EC50 is > 200 µM and the IC50 was > 200 µM.

`COc1cc(-c2oc3c(Cl)cc(Cl)cc3c(=O)c2O)cc(OC)c1OC`: the EC50 is > 200 µM and the IC50 is 38 µM.

As for `COc1cccc(/C=C2/S/C(=N/Nc3nc(C)c(C(C)=O)s3)NC2=O)c1O`, the EC50 was > 200 µM and the IC50 was determined as 32.4 µM.

On to `O=C1C=CC[C@H]2O[C@@H](COC(=O)Cc3ccccc3)C[C@H]2O1`, for which the EC50 was > 200 µM and the IC50 is 34.7 µM.

`CCOC(=O)C(NC(=O)CC)(N1CCN(c2cc3c(cc2F)c(=O)c(C(=O)O)cn3C2CC2)CC1)C(F)(F)F` (configuration not stated): the EC50 was > 200 µM and the IC50 was found to be 126 µM.

Regarding `O=C1N(Cc2ccccc2)[C@H]2CS(=O)(=O)C[C@@H]2N1Cc1ccccc1`, the EC50 was > 200 µM and the IC50 is > 200 µM.

Take `Cc1c(/C=N/NS(=O)(=O)c2ccccc2)no[n+]1[O-]`: the EC50 was > 891 µM and the IC50 was > 200 µM.

Take `S=c1[nH]ncc(SCc2ccccc2)c1SCc1ccccc1`: the EC50 was > 200 µM and the IC50 worked out at 13.2 µM.

As for `Cc1ccc(-c2c3nc(c(-c4ccc(C)cc4)c4ccc([nH]4)c(-c4ccc(C)cc4)c4nc(c(-c5ccncc5)c5ccc2[nH]5)C=C4)C=C3)cc1.Cc1ccc(-c2c3nc(c(-c4ccc(C)cc4)c4ccc([nH]4)c(-c4ccc(C)cc4)c4nc(c(-c5ccncc5)c5ccc2[nH]5)C=C4)C=C3)cc1.O=S(=O)([O-])C(F)(F)F.[Pt+2].c1ccc([PH+](CCC[PH+](c2ccccc2)c2ccccc2)c2ccccc2)cc1`, the outcome was inactive.

On to `Cc1cn(CC(=O)NCCO)c(=O)[nH]c1=O`, for which the EC50 is > 200 µM and the IC50 was > 200 µM.

As to `COc1cc(C=Nc2cc(Cl)c(N=O)c(Cl)c2)ccc1N(CCCCl)CCCCl`, the EC50 was 5.25 µM and the IC50 came to 22.4 µM.

Consider `Cc1ccc(CS(=O)(=O)C/N=c2\sc3ccccc3nc2/C=C(\O)c2ccc(Cl)cc2)cc1`, for which the EC50 was > 200 µM and the IC50 is > 200 µM.

With `CC(C)CCC[C@@H](C)C1CCC2[C@@H]3CC(O)C4C[C@@H](OS(=O)(=O)O)CC[C@]4(C)C3CC[C@@]21C` (some centres not stated), the EC50 is > 49 µM and the IC50 turned out to be 24.5 µM.

For `CC1=C[C@]2(O)C(=O)[C@H](C)C[C@H]3[C@@H](CC[C@@](C)(O)/C=C\2C1=O)C3(C)C`, the EC50 is > 30.2 µM and the IC50 worked out at 15.8 µM.

For the molecule `COc1cc2c3c(c1)ncn3C(=O)CCS2`, the EC50 was > 200 µM and the IC50 is > 200 µM.

In the case of `S=C(NNc1nc2ccccc2n2cccc12)Nc1ccc(Br)cn1`, the EC50 was > 0.2 µM and the IC50 was 0.0617 µM.

As to `Cc1cc(CSc2ssc(=S)c2-c2ccccc2)c(CSc2ssc(=S)c2-c2ccccc2)cc1C`, the EC50 was > 200 µM and the IC50 is > 200 µM.

As for `O=C(/C(=C/c1ccccc1Cl)c1ccccc1)c1ccccc1`, the EC50 is > 8.51 µM and the IC50 is > 8.51 µM.

For `Cc1cccc(N2C(=O)C3c4[nH]c5ccc(C)cc5c4C4CCC(C(C)(C)C)CC4C3C2=O)c1` (configuration not stated), the EC50 is > 200 µM and the IC50 is 8.51 µM.

Take `CC1(c2cccc3c2C2(O)C=CC4(CCC32)OCCO4)OCCO1` (configuration not stated): the EC50 was 123 µM and the IC50 was 174 µM.

On to `COc1ccc(-n2c(C)nc3ccc(NC(=S)Nc4ccccc4)cc3c2=O)cc1`, for which the EC50 is > 200 µM and the IC50 was > 200 µM.

On to `C=C(c1ccc(OC)cc1)C(CC)c1ccc(OC)cc1` (configuration not stated), for which the EC50 is > 200 µM and the IC50 amounted to 37.2 µM.

With `N#Cc1ccc(/C=C2\CCc3ccccc3C2=O)cc1`, the EC50 is > 20 µM and the IC50 was > 20 µM.

As to `OCC(O)CNc1ccnc2cc(Cl)ccc12` (configuration not stated), the EC50 was > 631 µM and the IC50 worked out at 117 µM.

Regarding `Cc1ccc(SSCCCCS(=O)O)cc1`, the outcome was inactive.

As for `N#CC(N)c1ccc(OCCCCCCCCCCOc2ccc(C(N)C#N)cc2)cc1` (configuration not stated), the EC50 was > 200 µM and the IC50 turned out to be 115 µM.

In the case of `COc1nc2c(nnn2C2OC(CO)C(O)C(O)C2O)c(=O)n1C` (configuration not stated), the result was inactive.

With `C=CCSS(=O)CC=C` (configuration not stated), the outcome was inactive.

`CC#N.CC#N.COC(=O)[C@@H]1CN(C(=O)CCc2ccccc2)C(=O)[N-]1.COC(=O)[C@@H]1CN(C(=O)CCc2ccccc2)C(=O)[N-]1.COC(=O)[C@@H]1CN(C(=O)CCc2ccccc2)C(=O)[N-]1.COC(=O)[C@@H]1CN(C(=O)CCc2ccccc2)C(=O)[N-]1.[Rh+2].[Rh+2]`: the EC50 was > 200 µM and the IC50 worked out at 4.37 µM.

On to `COc1c2c(cc3occ(-c4ccc(CC=C(C)C)cc4)c(=O)c13)OC(C)(C)C=C2`, for which the EC50 is > 200 µM and the IC50 worked out at 14.1 µM.

For the molecule `NCCCCNc1ccc2c(=O)[nH][nH]c(=O)c2c1`, the result was inactive.

`N#Cc1ccc(Oc2ccccc2)cc1C#N`: the EC50 was > 45.7 µM and the IC50 was > 45.7 µM.

In the case of `COc1ccc(OC)c(/C=C/c2ccccc2)c1`, the EC50 is 0.0631 µM and the IC50 was 110 µM.

For `Cc1cccc2c(NCCN(C)C)c3cccc(C(=O)NCCN(C)C)c3nc12`, the EC50 is > 0.2 µM and the IC50 is 0.195 µM.

`CCN(CC)C1CCC(C2c3cc4c(cc3OC(N3CCOCC3)C2C)OCO4)CC1` (configuration not stated): the EC50 was > 100 µM and the IC50 amounted to 5.89 µM.

`O=C(NC/C(Br)=C/Br)Nc1cccc2ccccc12`: the EC50 was 148 µM and the IC50 was > 200 µM.

Turning to `Cc1ccc(N=Nc2c(C)nn(-c3ccccc3)c2C)c(Br)c1`, the result was inactive.

As for `CCOC(=O)C(NC(=O)c1ccccc1)[CH](c1ccc(OC)cc1)[Sn]([c]1ccccc1)([c]1ccccc1)[c]1ccccc1` (configuration not stated), the EC50 is 34.7 µM and the IC50 was 81.3 µM.

In the case of `CN1C(=S)N2CCCCCCCC2C(C#N)=C1N` (configuration not stated), the EC50 was > 200 µM and the IC50 was > 200 µM.

Consider `Cc1cc2c(C(C)C)c(O)c(O)c(C=Nc3ccc(N=Nc4ccccc4)cc3)c2c(O)c1-c1c(C)cc2c(C(C)C)c(O)c(O)c(C=Nc3ccc(N=Nc4ccccc4)cc3)c2c1O`, for which the outcome was inactive.

On to `C=CC[C@]1(C(C)Cc2ccc(OC)c(OC)c2)C[C@@H](OC)C=CC1=O` (some centres not stated), for which the EC50 is > 10 µM and the IC50 was determined as 2.88 µM.

In the case of `CC(C)P(=S)(OCc1ccccc1)C(C)C`, the EC50 was > 200 µM and the IC50 stood at 126 µM.

Turning to `CC1(Br)C(=O)NC(=O)N(C2C=CC(CO)O2)C1N=[N+]=[N-]` (configuration not stated), the EC50 was 0.724 µM and the IC50 came to 7.24 µM.

Consider `N#C/C=C/c1cccc(Cl)c1`, for which the EC50 is > 60.3 µM and the IC50 was > 60.3 µM.

Turning to `c1ccc(N=c2sc3ccccc3nc2Nc2ccccc2)cc1`, the EC50 was > 200 µM and the IC50 is 123 µM.

In the case of `Nc1ccn(CCOC(=O)c2ccccc2)c(=O)n1`, the EC50 was > 52.5 µM and the IC50 was > 52.5 µM.

Consider `O=C(CCC1CCCCN1)Nc1ccc2c(c1)C(=O)c1ccc(NC(=O)CCN3CCCCC3)cc1C2=O` (configuration not stated), for which the result was inactive.

Consider `N#Cc1nc(C2=C(Cl)c3ccccc3OC2)[nH]c1C#N`, for which the result was inactive.

Turning to `NCCOB(c1ccccc1)c1ccccc1`, the EC50 was > 200 µM and the IC50 was 38.9 µM.

In the case of `CCN(CC)CCCNc1nc2ccccc2c2c1ncn2CC(C)C`, the EC50 is > 200 µM and the IC50 was determined as 41.7 µM.

Consider `CN1CN(c2ccccc2)C2(CCN(Cc3csc4ccccc34)CC2)C1=O`, for which the EC50 is > 200 µM and the IC50 was 66.1 µM.

Take `Cc1ccc(/C=C/C(=O)c2c([O-])on[n+]2-c2ccccc2)cc1`: the EC50 is > 200 µM and the IC50 was 2.63 µM.

Consider `CCC(C)C(NC(=O)C(CCC(=O)O)NC(=O)C(CCCCN)NC(=O)C(CO)NC(=O)C(CC(C)C)NC(=O)C(Cc1ccc(O)cc1)NC(=O)C(C)N)C(=O)NC(C)C(=O)NC(CO)C(=O)NC(CC(=O)O)C(=O)O` (configuration not stated) (H-AYLSKEIASD-OH; configuration not given here), for which the EC50 is > 29.5 µM, the outcome was inactive and the IC50 was > 29.5 µM.

A word on the EC50: it is the concentration that produces a half-maximal response. A word on the IC50: it is the concentration that inhibits the measured activity by half. Low readings indicate inhibition by little substance, high ones a need for much substance.
